Reference: patent US10793550B2, “4-piperidin-n-(pyrimidin-4-yl)chroman-7-sulfonamide derivatives as sodium channel inhibitors” (GENENTECH, INC., priority 2017, dated 2020)

What was measured:
[1] = biological target: T1, hNav1.7 (Homo sapiens, UniProt Q15858); assay: Tritiated compound competitive binding to membranes from cells expressing hNav1.7 and the β1 subunit; conditions: competition with 100 pM [3H]compound, 18 h, room temperature; "this model or another representative model of inhibition"; read-out: Nav1.7 inhib. in vitro
T1 construct: expressed in transfected cells
Protocol: Example 5: Tritiated Compound Binding to Membranes Isolated from Cells that Heterologously Express hNav1.7 and the β1 Subunit
Preparation of membranes containing recombinantly expressed sodium channels: Frozen recombinant cell pellets were thawed on ice and diluted to 4 times the cell pellet weight with ice cold 50 mM Tris HCl, pH 7.4 buffer. The cell suspensions were homogenized on ice using a motorized glass dounce homogeniser. Homogenates were further diluted 8.4 times with ice cold 50 mM Tris HCl, pH 7.4 buffer and then centrifuged at 200×g at 4° C. for 15 min. The supernatants were collected and centrifuged at 10000×g at 4° C. for 50 min. The pellets were then re-suspended in 100 mM NaCl, 20 mM Tris HCl, pH 7.4 buffer containing 1% v/v protease inhibitors (Calbiochem) and re-homogenized on ice. The homogenized membranes were then processed through a syringe equipped with a 26 gauge needle. Protein concentrations were determined by Bradford Assay and the membranes were stored at −80° C.
Radioligand Binding Studies:
Saturation experiments. A competitive NaV1.7 inhibitor having a methyl group was tritiated. Three tritiums were incorporated in place of methyl hydrogens to generate [^3H]compound. Binding of this radioligand was performed in 5 mL borosilicate glass test tubes at room temperature. Binding was initiated by adding membranes to increasing concentrations of [^3H]compound in 100 mM NaCl, 20 mM Tris HCl, pH 7.4 buffer containing 0.01% w/v bovine serum albumin (BSA) for 18h. Non-specific binding was determined in the presence of 1 μM unlabeled compound. After 18h, the reactants were filtered through GF/C glass fiber filters presoaked in 0.5% w/v polyethylene imine. Filters were washed with 15 mL ice cold 100 mM NaCl, 20 mM Tris HCl, pH7.4 buffer containing 0.25% BSA to separate bound from free ligand. [^3H]compound bound to filters was quantified by liquid scintillation counting.
Competitive Binding Experiments:
Binding reactions were performed in 96-well polypropylene plates at room temperature for 18h. In 360 μL, membranes were incubated with 100 pM [^3H]compound and increasing concentrations of Test Compound. Non-specific binding was defined in the presence of 1 μM unlabeled compound. Reactions were transferred and filtered through 96-well glass fiber/C filter plates presoaked with 0.5% polyethylene imine. The filtered reactions were washed 5 times with 200 μL ice cold buffer containing 0.25% BSA. Bound radioactivity was determined by liquid scintillation counting.
Data Analysis: For saturation experiments, non-specific binding was subtracted from total binding to provide specific binding and these values were recalculated in terms of pmol ligand bound per mg protein. Saturation curves were constructed and dissociation constants were calculated using the single site ligand binding model: Beq=(Bmax*X)/(X+Kd), where Beq is the amount of ligand bound at equilibrium, Bmax is the maximum receptor density, Kd is the dissociation constant for the ligand, and X is the free ligand concentration. For competition studies percent inhibition was determined and IC50 values were calculated using a 4 parameter logistic model (% inhibition=(A+((B−A)/(1+((x/C)^D)))) using XLfit, where A and B are the maximal and minimum inhibition respectively, C is the IC50 concentration and D is the (Hill) slope.

[2] = In vivo pharmacokinetic experiments (compound clearance in rats); conditions: rat; male rats, IV administration, plasma clearance; read-out: PK (CLp, rat)
Protocol: Example 6: In Vivo Pharmacokinetic Experiments (Compound Clearance in Rats)
In vivo clearance (CLp) of certain compounds was measured in order to evaluate whether these compounds were likely to be good candidates for development. Male rats were housed at controlled temperature and humidity in an alternating 12 hr light/dark cycle with access to food and water ad libitum. All in vivo studies were performed in accordance with Institutional Animal Care and Use Committee guidelines and in harmony with the Guide for Laboratory Animal Care and Use. Rats were administered IV administration of compound. Plasma was harvested from blood samples that were collected from each animal at various timepoints following the administration of compound. Plasma concentration of compound was determined by mass spectrometer, and pharmacokinetic analysis was performed using non-compartmental method using Phoenix WinNonlin. Following oral administration, percent bioavailability was determined for each animal by dividing the dose-normalized area under the plasma concentration-time curve from time 0 to the last measured concentration (AUC0-tlast) obtained following each oral dose by the mean dose-normalized AUC0-tlast of the animals dosed by IV injection.
CLp values above about 40 mL/min/kg in Example 6 are considered to be highly cleared from the body after administration of a compound to a subject, meaning that the exposure may be insufficient to be treated for a disease or disorder as provided herein.

T1 sequence (Q15858 whole entry): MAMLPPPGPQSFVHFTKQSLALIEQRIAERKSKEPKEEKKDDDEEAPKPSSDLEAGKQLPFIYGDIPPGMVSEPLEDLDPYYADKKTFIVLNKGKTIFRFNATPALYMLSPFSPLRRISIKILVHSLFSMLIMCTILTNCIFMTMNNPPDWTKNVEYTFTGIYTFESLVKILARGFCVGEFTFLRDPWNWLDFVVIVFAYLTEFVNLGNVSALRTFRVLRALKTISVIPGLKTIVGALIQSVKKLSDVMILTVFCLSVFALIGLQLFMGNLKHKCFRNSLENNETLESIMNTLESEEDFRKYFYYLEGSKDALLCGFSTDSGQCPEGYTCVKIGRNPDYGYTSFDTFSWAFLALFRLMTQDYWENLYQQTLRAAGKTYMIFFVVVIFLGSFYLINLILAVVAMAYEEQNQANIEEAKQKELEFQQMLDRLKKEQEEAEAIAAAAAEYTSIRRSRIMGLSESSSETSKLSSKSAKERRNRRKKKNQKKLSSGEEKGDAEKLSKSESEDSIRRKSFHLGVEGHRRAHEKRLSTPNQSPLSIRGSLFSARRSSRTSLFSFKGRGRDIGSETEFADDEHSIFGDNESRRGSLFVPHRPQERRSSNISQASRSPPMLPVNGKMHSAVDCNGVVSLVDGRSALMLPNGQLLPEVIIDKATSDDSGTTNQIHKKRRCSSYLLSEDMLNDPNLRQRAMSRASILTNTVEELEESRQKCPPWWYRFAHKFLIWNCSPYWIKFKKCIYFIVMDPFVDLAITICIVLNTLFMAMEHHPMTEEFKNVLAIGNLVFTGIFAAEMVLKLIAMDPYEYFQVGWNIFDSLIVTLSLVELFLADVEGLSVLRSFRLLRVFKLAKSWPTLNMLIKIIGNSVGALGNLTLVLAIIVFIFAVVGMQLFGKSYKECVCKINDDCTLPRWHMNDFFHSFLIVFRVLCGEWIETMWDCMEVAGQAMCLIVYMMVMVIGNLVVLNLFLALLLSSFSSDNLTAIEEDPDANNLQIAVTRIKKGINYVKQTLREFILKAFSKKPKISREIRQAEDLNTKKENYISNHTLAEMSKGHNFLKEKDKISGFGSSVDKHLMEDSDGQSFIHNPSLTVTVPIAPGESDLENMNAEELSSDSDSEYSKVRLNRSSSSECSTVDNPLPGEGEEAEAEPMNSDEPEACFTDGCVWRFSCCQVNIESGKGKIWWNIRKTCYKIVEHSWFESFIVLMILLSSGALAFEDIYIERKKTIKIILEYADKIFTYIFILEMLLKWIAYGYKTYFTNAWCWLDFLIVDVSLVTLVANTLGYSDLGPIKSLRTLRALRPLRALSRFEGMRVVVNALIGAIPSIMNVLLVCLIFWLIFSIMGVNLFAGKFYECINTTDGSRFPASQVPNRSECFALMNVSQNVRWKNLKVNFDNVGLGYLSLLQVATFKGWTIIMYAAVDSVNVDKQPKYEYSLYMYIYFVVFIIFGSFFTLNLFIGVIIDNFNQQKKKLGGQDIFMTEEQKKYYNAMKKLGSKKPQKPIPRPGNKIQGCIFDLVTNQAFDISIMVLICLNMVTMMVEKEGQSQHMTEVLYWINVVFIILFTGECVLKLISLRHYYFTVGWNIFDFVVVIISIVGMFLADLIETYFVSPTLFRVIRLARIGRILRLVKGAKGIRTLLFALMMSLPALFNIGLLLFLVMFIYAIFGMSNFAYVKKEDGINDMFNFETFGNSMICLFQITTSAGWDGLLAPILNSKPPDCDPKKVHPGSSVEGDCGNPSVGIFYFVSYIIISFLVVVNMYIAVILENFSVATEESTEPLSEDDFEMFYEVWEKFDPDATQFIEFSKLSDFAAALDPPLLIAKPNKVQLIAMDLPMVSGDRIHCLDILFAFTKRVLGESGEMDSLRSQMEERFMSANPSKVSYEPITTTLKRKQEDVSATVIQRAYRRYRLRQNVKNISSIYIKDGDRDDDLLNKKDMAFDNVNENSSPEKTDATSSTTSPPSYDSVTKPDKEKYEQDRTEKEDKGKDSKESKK
T1 sequence (Q07699 19-218 partner): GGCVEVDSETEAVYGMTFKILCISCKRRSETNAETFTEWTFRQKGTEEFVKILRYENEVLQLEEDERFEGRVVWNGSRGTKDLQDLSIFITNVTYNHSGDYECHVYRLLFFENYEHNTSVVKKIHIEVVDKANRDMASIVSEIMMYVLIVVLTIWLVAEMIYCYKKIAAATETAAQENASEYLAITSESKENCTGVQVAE

O=S(=O)(Nc1ncns1)c1ccc2c(c1)OCC[C@@H]2N1CC[C@@](O)(C(F)(F)F)C[C@H]1c1ccc(F)cc1 [A]
IC50 [1]: 1.1 nM
clearance [2]: > 60 mL/min/kg

O=S(=O)(Nc1ncns1)c1cc2c(cc1F)[C@@H](N1CC[C@@H](C(F)(F)F)C[C@H]1c1ccccn1)CCO2 [B]
IC50 [1]: < 0.5 nM
clearance [2]: > 60 mL/min/kg

O=S(=O)(Nc1ncns1)c1ccc2c(c1)OCC[C@@H]2N1CC[C@@H](C(F)(F)F)C[C@H]1c1ccc(F)cc1 [C]
clearance [2]: > 60 mL/min/kg

N#C[C@H]1CCN([C@H]2CCOc3cc(S(=O)(=O)Nc4ncns4)ccc32)C(c2ccc(F)cc2)C1 (stereo partly drawn) [D]
clearance [2]: > 60 mL/min/kg

N#C[C@H]1CCN([C@H]2CCOc3cc(S(=O)(=O)Nc4ncns4)ccc32)[C@@H](c2ccc(F)cc2)C1 [D]
IC50 [1]: 11 nM

O=S(=O)(Nc1ncns1)c1ccc2c(c1)OCC[C@@H]2N1CC[C@H](C(F)F)C[C@@H]1c1ccc(F)cc1 [E]
IC50 [1]: 2.6 nM
clearance [2]: > 60 mL/min/kg

O=S(=O)(Nc1ccncn1)c1cc2c(cc1F)[C@@H](N1CC[C@@H](C(F)(F)F)C[C@H]1c1ccccn1)CCO2 [Example 1, (S)-6-fluoro-4-((2S,4R)-2-(pyridin-2-yl)-4-(trifluoromethyl)piperidin-1-yl)-N-(pyrimidin-4-yl)chroman-7-sulfonamide]
clearance [2]: < 30 mL/min/kg

O=S(=O)(Nc1ccncn1)c1cc2c(cc1F)[C@@H](N1CC[C@@](O)(C(F)(F)F)C[C@H]1c1ccc(F)cc1)CCO2 [Example 2, (S)-6-fluoro-4-((2S,4S)-2-(4-fluorophenyl)-4-hydroxy-4-(trifluoromethyl)piperidin-1-yl)-N-(pyrimidin-4-yl)chroman-7-sulfonamide]
IC50 [1]: 0.5 nM
clearance [2]: < 30 mL/min/kg

O=S(=O)(Nc1ccncn1)c1cc2c(cc1F)[C@@H](N1CC[C@@H](OC(F)F)C[C@H]1c1ccc(F)cc1)CCO2 [Example 3, (S)-4-((2S,4R)-4-(difluoromethoxy)-2-(4-fluorophenyl)piperidin-1-yl)-6-fluoro-N-(pyrimidin-4-yl)chroman-7-sulfonamide]
IC50 [1]: 2.2 nM
clearance [2]: < 30 mL/min/kg

C[C@@H]1C[C@H](c2cccc(C(F)(F)F)c2)CCN1[C@H]1CCOc2cc(S(=O)(=O)Nc3ccncn3)c(F)cc21 [Example 4, (S)-6-fluoro-4-((2R,4R)-2-methyl-4-(3-(trifluoromethyl)phenyl)piperidin-1-yl)-N-(pyrimidin-4-yl)chroman-7-sulfonamide]
IC50 [1]: 3.4 nM
clearance [2]: < 30 mL/min/kg

CS(=O)(=O)[C@@H]1CCN([C@H]2CCOc3cc(S(=O)(=O)Nc4ncns4)ccc32)[C@H](c2ccc(F)cc2)C1 [F]
IC50 [1]: 8.8 nM
clearance [2]: > 60 mL/min/kg
